Test results published in patent US20220380375A1, “SUBSTITUTED AROMATIC FUSED RING DERIVATIVE AND COMPOSITION COMPRISING SAME, AND USE THEREOF” (Shenzhen TargetRx, Inc., priority 2019, published 2022).

Assays:
Type in all cases: cell-based
[1] = test system: Ba/F3 parental generation cells; assay: Cytotoxicity assay (CellTiter-Glo), Ba/F3 parental; conditions: Mus musculus, BaF3, Table 2, 72 hrs
Protocol: (§1) Inhibitory effects of example compounds on the activity of Ba/F3 parental generation, Ba/F3 KIF5B-RET, Ba/F3 KIF5B-RET^V804M, Ba/F3 KIF5B-RET^V804L, Ba/F3 KIF5B-RET^G810R, Ba/F3 FLT3-ITD, Ba/F3 FLT3-ITD^D835Y, Ba/F3 FLT3-ITD^F691L cells were determined.
(§2) Materials and reagents: fetal bovine serum FBS (GIBCO, Cat #10099141), CellTiter-Glo® Luminescent Cell Viability Assay kit (Promega, Cat #G7572), 96-well black-wall clear flat-bottom plate (Corning®, Cat #3603).
(§3) 1. Cells in the logarithmic growth phase were harvested and counted with a […]. Cell viability was detected by a trypan blue exclusion method, ensuring that cell viability was 90% or more; 2. Cell concentration was adjusted to about 3000 cells/well; 90 μl of cell suspension was added to each well of the 96-well plate; 3. The cells in the 96-well plate were incubated overnight under the condition of 37° C., 5% CO2, and 95% humidity.
(§4) 1. A series of compound solutions were formulated by 3.16-fold serial dilution starting from a concentration of 10 μM, resulting in 9 concentrations. 10 μL of the compound solutions were added in each well of the 96-well plate seeded with cells in triplicate for each compound concentration; 2. The cells in the 96-well plate added with compounds were further incubated under the condition of 37° C., 5% CO2, and 95% humidity for 72 hrs, and then CTG analysis was carried out.
(§5) 1. CTG reagent was thawed, and the cell plate was equilibrated at room temperature for 30 minutes; 2. An equal volume […] of CTG solution was added to each well; 3. The cell plate was shaken on an orbital shaker for 5 minutes to lyse the cells; 4. The cell plate was placed at RT for 20 minutes to stabilize the luminescence signal; 5. Luminescence value was read.
(§6) Data were Analyzed by GraphPad Prism 5.0 Software, and Fitted by Nonlinear S-Curve Regression to obtain a dose-response curve, from which IC50 values were calculated.
(§7) Cell survival rate (%)=(luminescence value of drug to be tested−luminescence value of culture medium control)/(luminescence value of cell control−luminescence value of culture medium control)×100%.

Ba/F3 KIF5B-RET cells [2] = assay: Cytotoxicity assay (CellTiter-Glo), Ba/F3 KIF5B-RET; conditions: ratio of Ba/F3 parental IC50 to Ba/F3 KIF5B-RET IC50
Protocol: as §1, §2, §3, §4, §5, §6, §7

Ba/F3 KIF5B-RET cells [3] = biological target: T1, Ba/F3 KIF5B-RET cells (Homo sapiens, UniProt P07949); assay: as above; conditions: CellTiter-Glo, 72 hrs; read-out: Ba/F3 KIF5B-RET IC50
T1 construct: Ba/F3 KIF5B-RET IC50 (nM); other: CellTiter-Glo, 72 hrs; fused on or other part: P33176 (Kinesin-1 heavy chain)
Protocol: as §1, §2, §3, §4, §5, §6, §7

[4] = test system: Ba/F3 FLT3-ITD^D835Y cells; assay: Cytotoxicity assay (CellTiter-Glo), Ba/F3 FLT3-ITD D835Y; conditions: ratio of Ba/F3 parental IC50 to Ba/F3 FLT3-ITD^D835Y IC50
Protocol: as §1, §2, §3, §4, §5, §6, §7

Ba/F3 FLT3-ITD cells [5] = biological target: T2, Ba/F3 FLT3-ITD cells (Homo sapiens, UniProt P36888, cells depend on it, form not given); assay: Cytotoxicity assay (CellTiter-Glo), Ba/F3 FLT3-ITD; conditions: CellTiter-Glo, 72 hrs; read-out: Ba/F3 FLT3-ITD IC50
T2 construct: Ba/F3 FLT3-ITD IC50 (nM); other: CellTiter-Glo, 72 hrs
T2 sequence (P36888 1-993): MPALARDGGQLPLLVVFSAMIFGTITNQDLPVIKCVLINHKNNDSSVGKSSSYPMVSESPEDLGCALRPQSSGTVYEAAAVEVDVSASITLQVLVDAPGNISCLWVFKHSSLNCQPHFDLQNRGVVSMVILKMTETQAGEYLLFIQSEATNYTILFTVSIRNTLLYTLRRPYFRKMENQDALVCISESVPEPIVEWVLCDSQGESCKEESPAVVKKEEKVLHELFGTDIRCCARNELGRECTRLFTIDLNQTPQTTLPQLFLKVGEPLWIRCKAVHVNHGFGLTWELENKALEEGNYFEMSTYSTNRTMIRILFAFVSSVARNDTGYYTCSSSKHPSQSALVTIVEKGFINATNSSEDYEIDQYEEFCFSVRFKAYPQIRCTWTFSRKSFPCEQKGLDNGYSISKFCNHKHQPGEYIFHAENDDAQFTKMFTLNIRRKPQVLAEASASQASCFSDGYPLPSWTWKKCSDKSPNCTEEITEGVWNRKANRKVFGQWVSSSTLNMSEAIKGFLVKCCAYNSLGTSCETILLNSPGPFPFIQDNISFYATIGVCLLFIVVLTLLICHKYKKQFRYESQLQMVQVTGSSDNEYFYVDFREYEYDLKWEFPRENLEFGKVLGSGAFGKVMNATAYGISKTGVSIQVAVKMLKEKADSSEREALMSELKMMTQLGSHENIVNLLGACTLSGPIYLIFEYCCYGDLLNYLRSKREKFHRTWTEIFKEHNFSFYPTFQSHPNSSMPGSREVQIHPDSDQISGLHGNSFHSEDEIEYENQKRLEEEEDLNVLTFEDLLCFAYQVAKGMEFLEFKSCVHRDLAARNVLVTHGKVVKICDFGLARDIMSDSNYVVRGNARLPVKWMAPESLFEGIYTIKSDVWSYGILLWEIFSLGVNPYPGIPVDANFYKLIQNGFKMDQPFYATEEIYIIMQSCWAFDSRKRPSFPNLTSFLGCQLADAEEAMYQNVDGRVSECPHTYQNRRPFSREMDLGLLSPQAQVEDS
Protocol: as §1, §2, §3, §4, §5, §6, §7

Ba/F3 FLT3-ITD cells [6] = assay: Cytotoxicity assay (CellTiter-Glo), Ba/F3 FLT3-ITD; conditions: ratio of Ba/F3 parental IC50 to Ba/F3 FLT3-ITD IC50
Protocol: as §1, §2, §3, §4, §5, §6, §7

T1 sequence (P07949 whole entry, change not shown, the tested form may be a part): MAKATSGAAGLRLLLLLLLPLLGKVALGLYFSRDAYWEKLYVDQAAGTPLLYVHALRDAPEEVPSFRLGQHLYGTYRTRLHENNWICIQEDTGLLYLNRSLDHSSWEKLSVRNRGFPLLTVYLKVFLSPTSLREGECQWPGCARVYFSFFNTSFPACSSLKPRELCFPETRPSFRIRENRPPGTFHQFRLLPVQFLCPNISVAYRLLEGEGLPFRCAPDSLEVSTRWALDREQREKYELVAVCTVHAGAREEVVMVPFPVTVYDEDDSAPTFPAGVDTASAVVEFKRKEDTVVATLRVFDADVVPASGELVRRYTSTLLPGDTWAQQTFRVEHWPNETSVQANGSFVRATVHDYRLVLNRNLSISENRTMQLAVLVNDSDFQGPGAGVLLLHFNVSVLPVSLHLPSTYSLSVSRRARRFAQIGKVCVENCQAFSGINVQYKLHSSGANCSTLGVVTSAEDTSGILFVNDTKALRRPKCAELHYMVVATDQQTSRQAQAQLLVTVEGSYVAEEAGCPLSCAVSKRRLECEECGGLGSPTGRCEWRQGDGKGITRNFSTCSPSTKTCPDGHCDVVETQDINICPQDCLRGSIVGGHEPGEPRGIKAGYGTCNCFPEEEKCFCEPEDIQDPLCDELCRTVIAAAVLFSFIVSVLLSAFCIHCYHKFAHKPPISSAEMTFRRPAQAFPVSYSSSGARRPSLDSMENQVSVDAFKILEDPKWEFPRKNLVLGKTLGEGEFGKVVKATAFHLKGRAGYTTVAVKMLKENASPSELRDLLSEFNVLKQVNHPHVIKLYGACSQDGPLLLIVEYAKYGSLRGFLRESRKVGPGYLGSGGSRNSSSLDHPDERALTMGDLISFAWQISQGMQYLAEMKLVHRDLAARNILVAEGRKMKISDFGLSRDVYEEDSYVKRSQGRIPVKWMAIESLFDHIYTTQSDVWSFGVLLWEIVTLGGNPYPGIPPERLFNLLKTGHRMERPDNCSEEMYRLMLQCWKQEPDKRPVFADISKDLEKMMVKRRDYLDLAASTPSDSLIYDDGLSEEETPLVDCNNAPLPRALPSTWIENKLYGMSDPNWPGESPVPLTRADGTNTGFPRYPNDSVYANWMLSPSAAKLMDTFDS

In the case of [2H]C([2H])([2H])C(n1nc(-c2ccc(CC(=O)Nc3cc(C(C)(C)C(F)(F)F)no3)cc2)c2c(N)ncnc21)C([2H])([2H])[2H] [Compound T-11, 2-(4-(4-amino-1-(propan-2-yl-1,1,1,3,3,3-d6)-1H-pyrazolo[3,4-d]pyrimidin-3-yl)phenyl)-N-(3-(1,1,1-trifluoro-2-methylpropan-2-yl)isoxazol-5-yl)acetamide], the IC50 [1] is reported as 5510 nM, the “Ba/F3 KIF5B-RET Selectivity on parental generation” value (Ba/F3 KIF5B-RET cells [2]) is reported as 4236.2 and the GI50 (Ba/F3 KIF5B-RET cells [3]) is reported as 1.3 nM. For the same compound, the “Ba/F3 FLT3-ITD^D835Y Selectivity on parental generation” value [4] was 307.7, the GI50 (Ba/F3 FLT3-ITD cells [5]) was 0.73 nM and the “Ba/F3 FLT3-ITD Selectivity on parental generation” value (Ba/F3 FLT3-ITD cells [6]) was 7543.8.
For [2H]C([2H])([2H])C(n1cc(-c2ccc(CC(=O)Nc3cc(C(C)(C)C(F)(F)F)on3)cc2)c2c(N)ncnc21)C([2H])([2H])[2H] [Compound T-12, 2-(4-(4-amino-7-(propen-2-yl-1,1,1,3,3,d6)-7H-pyrrolo[2,3-d]pyrimidin-5-yl)phenyl)-N-(5-(1,1,1-trifluo-2-methylpropan-2-yl)isoxazol-3-yl)acetamide], the IC50 [1] was 1070 nM, the “Ba/F3 KIF5B-RET Selectivity on parental generation” value (Ba/F3 KIF5B-RET cells [2]) was 478.6 and the GI50 (Ba/F3 KIF5B-RET cells [3]) was 2.24 nM. The “Ba/F3 FLT3-ITD^D835Y Selectivity on parental generation” value [4] was 87.2, the GI50 (Ba/F3 FLT3-ITD cells [5]) was 0.7 nM and the “Ba/F3 FLT3-ITD Selectivity on parental generation” value (Ba/F3 FLT3-ITD cells [6]) was 1531.4.
